“And” between values parts separate entries of the source, which are not always exact repeats. Equal values may be shown once.
Key:
[1] = target: T1, GLS1 (purified recombinant human GAC) (Homo sapiens, UniProt O94925); experiment: GLS1 enzymatic activity assay (dual-coupled, Amplex UltraRed/resorufin); type: biochemical
T1 sequence (O94925 55-598 isoform O94925-3 limits assumed): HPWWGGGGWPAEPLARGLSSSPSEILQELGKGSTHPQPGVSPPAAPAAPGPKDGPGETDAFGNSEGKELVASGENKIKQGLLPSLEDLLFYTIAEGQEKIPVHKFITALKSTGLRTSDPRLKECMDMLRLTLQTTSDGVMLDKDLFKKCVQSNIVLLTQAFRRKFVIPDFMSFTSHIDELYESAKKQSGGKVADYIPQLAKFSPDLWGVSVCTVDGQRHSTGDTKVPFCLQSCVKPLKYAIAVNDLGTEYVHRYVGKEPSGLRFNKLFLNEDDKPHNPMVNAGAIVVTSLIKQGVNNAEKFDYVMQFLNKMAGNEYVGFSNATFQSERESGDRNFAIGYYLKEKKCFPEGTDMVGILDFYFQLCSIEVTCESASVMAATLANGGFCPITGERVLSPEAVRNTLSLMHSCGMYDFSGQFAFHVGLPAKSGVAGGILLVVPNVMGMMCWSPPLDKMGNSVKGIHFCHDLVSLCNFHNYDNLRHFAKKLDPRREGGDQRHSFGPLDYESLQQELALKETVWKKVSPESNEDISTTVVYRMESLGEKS
In short: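 GAC activity measured by coupling glutamate to glutamate oxidase and HRP, generating resorufin from Amplex UltraRed. Enzyme (2 nM) preincubated with 50 mM potassium phosphate 10 min at room temperature, then inhibitor 10 min; 1 mM glutamine substrate, 1% DMSO. Fluorescence 530/590 nm, kinetic or 20-min endpoint; IC50 from four-parameter logistic fit.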

[2] = test system: A549 cells; experiment: A549 proliferation (viability) assay, Cell Titer Fluor, 72 hours; type: cell-based; details: Homo sapiens
In short: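 1000 A549 cells/well, RPMI 1640/10% dialyzed FBS, 24 h attach; compound 72 h, 0.5% DMSO, 37 °C/5% CO2; Cell Titer Fluor fluorescence; EC50 via 4-parameter logistic.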

Row | Structure (SMILES) | IC50 [1] | EC50 [2]
1 | O=C(Nc1ccn(CCCCc2nnc(C(=O)NCCO)s2)c(=O)n1)OCc1ccccc1 [Example 119, benzyl N-[1-(4-{5-[(2-hydroxyethyl)carbamoyl]-1,3,4-thiadiazol-2-yl}butyl)-2-oxo-1,2-dihydropyrimidin-4-yl]carbamate] | 0.5 to 5 µM | > 5 µM
2 | O=C(Nc1ccn(CCCCc2nnc(C(=O)NCc3ccccn3)s2)c(=O)n1)OCc1ccccc1 [Example 120, benzyl N-[2-oxo-1-(4-{5-[(pyridin-2-ylmethyl)carbamoyl]-1,3,4-thiadiazol-2-yl}butyl)-1,2-dihydropyrimidin-4-yl]carbamate] | 0.5 to 5 µM and 0.1 to 0.5 µM | 0.5 to 5 µM
3 | COCCNC(=O)c1nnc(CCCCn2ccc(NC(=O)OCc3ccccc3)nc2=O)s1 [Example 121, benzyl N-[1-(4-{5-[(2-methoxyethyl)carbamoyl]-1,3,4-thiadiazol-2-yl}butyl)-2-oxo-1,2-dihydropyrimidin-4-yl]carbamate] | 0.5 to 5 µM | > 5 µM
4 | Cc1ccc(CNC(=O)c2cn(C[C@@H](F)CCn3ccc(NC(=O)Cc4ccccc4)c(F)c3=O)nn2)cn1 [Example 124, (S)-1-(2-fluoro-4-(3-fluoro-2-oxo-4-(2-phenylacetamido)pyridin-1(2H)-yl)butyl)-N-((6-methylpyridin-3-yl)methyl)-1H-1,2,3-triazole-4-carboxamide] | 0.1 to 0.5 µM | 0.5 to 5 µM
5 | CC(C)CNC(=O)Nc1nnc(CCCCn2ccc(NC(=O)CC3CCCC3)c(F)c2=O)s1 [Example 128, 2-cyclopentyl-N-(3-fluoro-1-(4-(5-(3-isobutylureido)-1,3,4-thiadiazol-2-yl)butyl)-2-oxo-1,2-dihydropyridin-4-yl)acetamide] | 0.1 to 0.5 µM | > 5 µM
6 | O=C(Cc1ccccc1)Nc1ccn(CCCCc2nnc(NC(=O)NCc3ccccc3)s2)c(=O)c1F [Example 129, N-(1-(4-(5-(3-benzylureido)-1,3,4-thiadiazol-2-yl)butyl)-3-fluoro-2-oxo-1,2-dihydropyridin-4-yl)-2-phenylacetamide] | < 0.1 µM | 0.5 to 5 µM
7 | O=C(CC1CCCC1)Nc1ccn(CCCCc2nnc(NC(=O)NCc3ccccc3)s2)c(=O)c1F [Example 130, N-(1-(4-(5-(3-benzylureido)-1,3,4-thiadiazol-2-yl)butyl)-3-fluoro-2-oxo-1,2-dihydropyridin-4-yl)-2-cyclopentylacetamide] | < 0.1 µM | 0.5 to 5 µM
8 | O=C(CC1CCCC1)Nc1ccn(CCCCc2nnc(NC(=O)NCc3ccccn3)s2)c(=O)c1F [Example 131, 2-cyclopentyl-N-(3-fluoro-2-oxo-1-(4-(5-(3-(pyridin-2-ylmethyl)ureido)-1,3,4-thiadiazol-2-yl)butyl)-1,2-dihydropyridin-4-yl)acetamide] | < 0.1 µM | 0.5 to 5 µM
9 | CNC(=O)Nc1nnc(CCCCn2ccc(NC(=O)CC3CCCC3)c(F)c2=O)s1 [Example 132, 2-cyclopentyl-N-(3-fluoro-1-(4-(5-(3-methylureido)-1,3,4-thiadiazol-2-yl)butyl)-2-oxo-1,2-dihydropyridin-4-yl)acetamide] | 0.1 to 0.5 µM | > 5 µM
10 | Cc1ccc(CNC(=O)c2cn(CCCCn3ccc(NC(=O)OCc4ccccc4)cc3=O)nn2)cn1 [Example 135, benzyl N-{1-[4-(4-{[(6-methylpyridin-3-yl)methyl]carbamoyl}-1H-1,2,3-triazol-1-yl)butyl]-2-oxo-1,2-dihydropyridin-4-yl}carbamate] | 0.1 to 0.5 µM | 0.5 to 5 µM
11 | NC(=O)CNC(=O)c1cn(CCCCn2ccc(NC(=O)Cc3cccc(OC(F)(F)F)c3)cc2=O)nn1 [Example 136, 2-({1-[4-(2-oxo-4-{2-[3-(trifluoromethoxy)phenyl]acetamido}-1,2-dihydropyridin-1-yl)butyl]-1H-1,2,3-triazol-4-yl}formamido)acetamide] | 0.1 to 0.5 µM | > 5 µM

The next lines start with the values.

Row | IC50 [1] | EC50 [2] | Structure (SMILES)
12 | < 0.1 µM | < 0.1 µM | CC(C)CC(=O)Nc1ccn(CCCCc2ccc(NC(=O)Cc3cccc(OC(F)(F)F)c3)nn2)c(=O)n1 [Example 111, 3-methyl-N-{2-oxo-1-[4-(6-{2-[3-(trifluoromethoxy)phenyl]acetamido}pyridazin-3-yl)butyl]-1,2-dihydropyrimidin-4-yl}butanamide]
13 | < 0.1 µM | 0.1 to 0.5 µM | COCCOC(=O)Nc1ccn(CCCCc2ccc(NC(=O)Cc3cccc(OC(F)(F)F)c3)nn2)c(=O)n1 [Example 112, 2-methoxyethyl N-{2-oxo-1-[4-(6-{2-[3-(trifluoro-methoxy)phenyl]acetamido}pyridazin-3-yl)butyl]-1,2-dihydropyrimidin-4-yl}carbamate]
14 | < 0.1 µM | 0.5 to 5 µM | O=C(Cc1cccc(OC(F)(F)F)c1)Nc1ccc(CCCCn2ccc(NC(=O)CO)nc2=O)nn1 [Example 113, 2-hydroxy-N-{2-oxo-1-[4-(6-{2-[3-(trifluoromethoxy)phenyl]acetamido}pyridazin-3-yl)butyl]-1,2-dihydropyrimidin-4-yl}acetamide]
15 | < 0.1 µM | < 0.1 µM | Cn1cc(CC(=O)Nc2ccn(CCCCc3ccc(NC(=O)Cc4cccc(OC(F)(F)F)c4)nn3)c(=O)n2)cn1 [Example 114, N-[6-(4-{4-[2-(1-methyl-1H-pyrazol-4-yl)acetamido]-2-oxo-1,2-dihydropyrimidin-1-yl}butyl)pyridazin-3-yl]-2-[3-(trifluoromethoxy)phenyl]acetamide]
16 | < 0.1 µM | < 0.1 µM | O=C(Cc1cccc(OC(F)(F)F)c1)Nc1ccc(CCCCn2ccc(NC(=O)Cc3cccnc3)nc2=O)nn1 [Example 116, N-[6-(4-{2-oxo-4-[2-(pyridin-3-yl)acetamido]-1,2-dihydropyrimidin-1-yl}butyl)pyridazin-3-yl]-2-[3-(trifluoromethoxy)phenyl]acetamide]
17 | < 0.1 µM | 0.5 to 5 µM | O=C(Cc1cccc(OC(F)(F)F)c1)Nc1ccc(CCCCn2ccc(NC(=O)CCO)nc2=O)nn1 [Example 117, 3-hydroxy-N-{2-oxo-1-[4-(6-{2-[3-(trifluoromethoxy)phenyl]acetamido}pyridazin-3-yl)butyl]-1,2-dihydropyrimidin-4-yl}propanamide]
18 | < 0.1 µM | < 0.1 µM | O=C(Cc1cccc(OC(F)(F)F)c1)Nc1ccc(CCCCn2ccc(NC(=O)Cc3ccccn3)nc2=O)nn1 [Example 118, N-[6-(4-{2-oxo-4-[2-(pyridin-2-yl)acetamido]-1,2-dihydropyrimidin-1-yl}butyl)pyridazin-3-yl]-2-[3-(trifluoromethoxy)phenyl]acetamide]
19 | 0.1 to 0.5 µM | 0.1 to 0.5 µM | O=C(Nc1ccn(CCCCc2nnc(C(=O)NCc3ccccc3)s2)c(=O)n1)OCc1ccccc1 [Example 122, benzyl N-(1-{4-[5-(benzylcarbamoyl)-1,3,4-thiadiazol-2-yl]butyl}-2-oxo-1,2-dihydropyrimidin-4-yl)carbamate]
20 | < 0.1 µM | < 0.1 µM | O=C(Cc1ccccc1)Nc1ccn(CC[C@H](F)Cn2cc(C(=O)NCc3cc(C(F)(F)F)ccn3)nn2)c(=O)c1F [Example 125, (S)-1-(2-fluoro-4-(3-fluoro-2-oxo-4-(2-phenylacetamido)pyridin-1(2H)-yl)butyl)-N-((4-(trifluoromethyl)pyridin-2-yl)methyl)-1H-1,2,3-triazole-4-carboxamide]
21 | < 0.1 µM | 0.1 to 0.5 µM | O=C(Cc1ccccc1)Nc1ccn(CC[C@H](F)Cn2cc(C(=O)NCc3cccc(C(F)(F)F)n3)nn2)c(=O)c1F [Example 126, (S)-1-(2-fluoro-4-(3-fluoro-2-oxo-4-(2-phenylacetamido)pyridin-1(2H)-yl)butyl)-N-((6-(trifluoromethyl)pyridin-2-yl)methyl)-1H-1,2,3-triazole-4-carboxamide]
22 | < 0.1 µM | < 0.1 µM | O=C(Cc1ccccc1)Nc1ccn(CC[C@H](F)Cn2cc(C(=O)NCc3cccc(OC(F)(F)F)c3)nn2)c(=O)c1F [Example 127]
23 | < 0.1 µM | 0.1 to 0.5 µM | O=C(CC1CCCC1)Nc1ccn(CCCCc2nnc(NC(=O)NCc3cccc(C(F)(F)F)c3)s2)c(=O)c1F [Example 133, 2-cyclopentyl-N-(3-fluoro-2-oxo-1-(4-(5-(3-(3-(trifluoromethyl)benzyl)ureido)-1,3,4-thiadiazol-2-yl)butyl)-1,2-dihydropyridin-4-yl)acetamide]
24 | < 0.1 µM | < 0.1 µM | O=C(Cc1ccccc1)Nc1ccn(CCC(F)Cn2cc(C(=O)NCc3cccc(OC(F)(F)F)c3)nn2)c(=O)c1 (centres unmarked) [Example 134, 1-{2-fluoro-4-[2-oxo-4-(2-phenylacetamido)-1,2-dihydropyridin-1-yl]butyl}-N-{[3-(trifluoromethoxy)phenyl]methyl}-1H-1,2,3-triazole-4-carboxamide]
25 | < 0.1 µM | 0.1 to 0.5 µM | CC(C)(C)OC(=O)Nc1ccn(CCCCn2cc(C(=O)NCc3cccc(C(F)(F)F)c3)nn2)c(=O)c1 [Example 139, tert-butyl N-(2-oxo-1-{4-[4-({[3-(trifluoromethyl)phenyl]methyl}carbamoyl)-1H-1,2,3-triazol-1-yl]butyl}-1,2-dihydropyridin-4-yl)carbamate]
